Reference: patent US20230256139A1, “IMPLANT SURFACES FOR PAIN CONTROL” (The General Hospital Corporation, priority 2016, published 2023)
Where “and” joins values, the source holds several entries; their conditions need not be identical. Equal values may be shown once. Read-outs that look alike come from different tables or passages of the source.

Key:
[1] = CISM 1 cm cubes, 120° C.
[2] = Elution of lidocaine-blended UHMWPE cubes in 40° C. DI water, FTIR lidocaine index profile; format: physicochemical; conditions: 0.25 wt % and 0.50 wt % lidocaine blends, up to 6 weeks
Procedure: These cubes were then immersed in 40° C. DI water. Groups of n=3 cubes per each wt. % were removed from the DI water and analyzed via FTIR at the following time points: 0 weeks (Control), 1 week, 2 weeks, 4 weeks, and 6 weeks.

[3] = for amount of lidocaine eluted: cubes doped 640 min at 100° C.
Excerpt: The cubes were microtomed perpendicular to a surface plane in the middle of the said surface and the FTIR spectra of the thin sections prepared as described above were obtained as a function of depth from the surface towards the bulk.

[4] = cited from earlier work

Molecule: 2-(Dimethylamino)-N-(2,6-Dimethylphenyl)acetamide [lidocaine]
- amount of lidocaine absorbed ([1]; doping time 1 hour): 10.6 ± 0.3 mg
- amount of lidocaine absorbed ([1]; doping time 2 hours): 16.8 ± 0.1 mg
- amount of lidocaine absorbed ([1]; doping time 6 hours): 30.8 ± 0.2 mg and ~31 mg
- amount of lidocaine absorbed ([1]; doping time 12 hours): 40.3 ± 0.2 mg
- amount of lidocaine absorbed ([1]; doping time 24 hours): 52.1 ± 0.9 mg
- amount of lidocaine absorbed ([1]; doping time […]): 3.0 ± 0.1 mg
- surface concentration of lidocaine in UHMWPE with increasing elution time [2]: decrease
- lidocaine eluted, percent ([3]; 40° C. DI H2O, 1 day): 13%
- amount of lidocaine eluted ([3]; 40° C. DI H2O, 1 day): 1.4 ± 0.1 mg
- lidocaine eluted, percent ([3]; 40° C. DI H2O, 2 days): 20%
- amount of lidocaine eluted ([3]; 40° C. DI H2O, 2 days): 2.2 ± 0.1 mg
- lidocaine eluted, percent ([3]; 40° C. DI H2O, 7 days): 34%
- amount of lidocaine eluted ([3]; 40° C. DI H2O, 7 days): 3.6 ± 0.1 mg
- lidocaine eluted, percent ([3]; 40° C. DI H2O, 14 days): 45%
- amount of lidocaine eluted ([3]; 40° C. DI H2O, 14 days): 4.8 ± 0.1 mg
- lidocaine eluted, percent ([3]; 40° C. DI H2O, 28 days): 59%
- amount of lidocaine eluted ([3]; 40° C. DI H2O, 28 days): 6.3 ± 0.2 mg
- lidocaine eluted, percent ([3]; 40° C. DI H2O, 56 days): 70%
- amount of lidocaine eluted ([3]; 40° C. DI H2O, 56 days): 7.5 ± 0.1 mg
- lidocaine eluted, percent ([3]; 100° C. DI H2O, 0.6 hours): 19%
- amount of lidocaine eluted ([3]; 100° C. DI H2O, 0.6 hours): 2.0 ± 0.0 mg
- lidocaine eluted, percent ([3]; 100° C. DI H2O, 2.6 hours): 38%
- amount of lidocaine eluted ([3]; 100° C. DI H2O, 2.6 hours): 4.1 ± 0.1 mg
- lidocaine eluted, percent ([3]; 100° C. DI H2O, 5.3 hours): 49%
- amount of lidocaine eluted ([3]; 100° C. DI H2O, 5.3 hours): 5.2 ± 0.0 mg
- lidocaine eluted, percent ([3]; 100° C. DI H2O, 12 hours): 70%
- amount of lidocaine eluted ([3]; 100° C. DI H2O, 12 hours): 7.3 ± 0.0 mg
- lidocaine eluted, percent ([3]; 100° C. DI H2O, 24 hours): 79%
- amount of lidocaine eluted ([3]; 100° C. DI H2O, 24 hours): 8.6 ± 0.2 mg
- lidocaine eluted, percent ([3]; 100° C. DI H2O, 48 hours): 85%
- amount of lidocaine eluted ([3]; 100° C. DI H2O, 48 hours): 9.0 ± 0.1 mg

Molecule: CCCCN1CCCCC1C(=O)Nc1c(C)cccc1C.Cl (stereo not shown) [bupivacaine hydrochloride, 1-Butyl-N-(2,6-dimethylphenyl)-2-piperidinecarboxamide hydrochloride]
- solubility in cold water [4]: soluble
- solubility in diethyl ether [4]: partially soluble
- solubility in methanol [4]: easily soluble
